Assay results taken from patent US9326513B2, “Fungicidal compositions” (Syngenta Participations AG, priority 2011, dated 2016).

How the values were obtained:
Assay type in all cases: in vivo
Settings in all cases: foliar, compared to untreated control leaf disks, read-out: disease control
[1] = tested on: Blumeria graminis f. sp. tritici (Erysiphe graminis f. sp. tritici); assay: Blumeria graminis f. sp. tritici / wheat / leaf disc preventative (powdery mildew on wheat)
Protocol: Blumeria graminis f. sp. tritici (Erysiphe graminis f. sp. tritici)/Wheat/Leaf Disc Preventative (Powdery Mildew on Wheat)
Wheat leaf segments cv. Kanzler were placed on agar in a multiwell plate (24-well format) and sprayed with the formulated test compound diluted in water. The leaf disks were inoculated by shaking powdery mildew infected plants above the test plates 1 day after application. The inoculated leaf disks were incubated at 20° C. and 60% rh under a light regime of 24 h darkness followed by 12 h light/12 h darkness in a climate chamber and the activity of a compound was assessed as percent disease control compared to untreated when an appropriate level of disease damage appears on untreated check leaf segments (6-8 days after application).
The following compounds gave at 200 ppm give at least 50% disease control in this test when compared to untreated control leaf disks under the same conditions, which show extensive disease development: […]

[2] = tested on: Puccinia recondita f. sp. tritici; assay: Puccinia recondita f. sp. tritici / wheat / leaf disc preventative (brown rust)
Description: Puccinia recondita f. sp. tritici/Wheat/Leaf Disc Preventative (Brown Rust) Wheat leaf segments cv. Kanzler were placed on agar in multiwell plates (24-well format) and sprayed with the formulated test compound diluted in water. The leaf disks were inoculated with a spore suspension of the fungus 1 day after application.

[3] = tested on: Puccinia recondita f. sp. tritici; assay: Puccinia recondita f. sp. tritici / wheat / leaf disc curative (brown rust)
Protocol: Puccinia recondita f. sp. tritici/Wheat/Leaf Disc Curative (Brown Rust) Wheat leaf segments cv. Kanzler are placed on agar in multiwell plates (24-well format). The leaf segments are inoculated with a spore suspension of the fungus. Plates were stored in darkness at 19° C. and 75% rh. The formulated test compound diluted in water was applied 1 day after inoculation.

Measured: pest or weed control at 200 ppm

C=Cc1ccccc1C(C)Oc1nc(C)c(/N=C/N(C)CC)cc1Br (stereo not drawn) [Q.276]
≥ 50%: all assays above

CCN(C)/C=N/c1cc(Br)c(OC2C=CC(=O)CC2)nc1C (stereo not drawn) [Q.281]
≥ 50%: all assays above

CCc1ccccc1C(C)Oc1nc(C)c(/N=C/N(C)CC)cc1Br (stereo not drawn) [Q.283]
≥ 50%: all assays above

CCCc1ccccc1C(C)Oc1nc(C)c(/N=C/N(C)CC)cc1Br (stereo not drawn) [Q.287]
≥ 50%: all assays above

CCN(C)/C=N/c1cc(Br)c(OC(C)c2ccccc2C(F)F)nc1C (stereo not drawn) [Q.290]
≥ 50%: all assays above

CCN(C)/C=N/c1cc(Br)c(OCc2ccccc2-c2ccccc2)nc1C [Q.294]
≥ 50%: all assays above

CCN(C)/C=N/c1ccc(OCc2cc(C)cc(C)c2)nc1C [Q.296]
≥ 50%: all assays above

Cc1cc(C)cc(COc2ccc(/N=C/N(C)C(C)C)c(C)n2)c1 [Q.297]
≥ 50%: all assays above

CCN(C)/C=N/c1cc(Br)c(OC(C)c2ccccc2Br)nc1C (stereo not drawn) [Q.303]
≥ 50%: all assays above

CCN(C)/C=N/c1cc(Br)c(OC(C)c2ccccc2C#N)nc1C (stereo not drawn) [Q.305]
≥ 50%: all assays above

CCN(C)/C=N/c1cc(Br)c(OCc2ccccc2C(C)C)nc1C [Q.306]
≥ 50%: all assays above

CCN(C)/C=N/c1cc(Br)c(OC(C)c2ccccc2C(C)C)nc1C (stereo not drawn) [Q.307]
≥ 50%: all assays above

CCN(C)/C=N/c1cc(Br)c(OCc2ccccc2CCc2ccccc2)nc1C [Q.309]
≥ 50%: all assays above

CCN(C)/C=N/c1cc(Br)c(OCc2ccccc2C#Cc2ccccc2)nc1C [Q.310]
≥ 50%: all assays above

CCN(C)/C=N/c1cc(Br)c(OCc2cc(F)c(F)c(F)c2)nc1C [Q.317]
≥ 50%: all assays above

CCN(C)/C=N/c1cc(Br)c(OC(C)c2cc(F)c(F)c(F)c2)nc1C (stereo not drawn) [Q.318]
≥ 50%: all assays above

CCN(C)/C=N/c1cc(Br)c(OCc2ccc3c(c2)CCCC3)nc1C [Q.319]
≥ 50%: all assays above

CCN(C)/C=N/c1cc(Br)c(OC(C)c2ccccc2C)nc1C (stereo not drawn) [Q.321]
≥ 50%: all assays above

CCN(C)/C=N/c1cc(Br)c(OCc2ccc(F)c(C)c2)nc1C [Q.323]
≥ 50%: all assays above

CCC(Oc1nc(C)c(/N=C/N(C)CC)cc1Br)c1cc(F)cc(F)c1 (stereo not drawn) [Q.327]
≥ 50%: all assays above

CCN(C)/C=N/c1cc(Br)c(OCc2ccccc2OC)nc1C [Q.330]
≥ 50%: all assays above

C/C=C/C(C)Oc1nc(C)c(/N=C/N(C)CC)cc1Br (stereo not drawn) [Q.331]
≥ 50%: all assays above

CSc1ccccc1COc1ccc(/N=C/N(C)C(C)C)c(C)n1 [Q.339]
≥ 50%: all assays above

CCN(C)/C=N/c1ccc(OC2CCCCC2C)nc1C (stereo not drawn) [Q.341]
≥ 50%: all assays above

Cc1nc(OC2CCCCC2C)ccc1/N=C/N(C)C(C)C (stereo not drawn) [Q.342]
≥ 50%: all assays above

CCCc1ccccc1COc1nc(C)c(/N=C/N(C)CC)cc1Br [Q.345]
≥ 50%: all assays above

CCC(Oc1ccc(/N=C/N(C)CC)c(C)n1)c1ccccc1 (stereo not drawn) [Q.347]
≥ 50%: all assays above

CCN(C)/C=N/c1ccc(OCCc2ccccc2C)nc1C [Q.350]
≥ 50%: all assays above

CCN(C)/C=N/c1cc(Br)c(OCc2ccc3cccnc3c2)nc1C [Q.351]
≥ 50%: all assays above

CCN(C)/C=N/c1cc(Br)c(OCCCC2CC2)nc1C [Q.356]
≥ 50%: all assays above

CCC(Oc1ccc(/N=C/N(C)CC)c(C)n1)c1cc(C)cc(C)c1 (stereo not drawn) [Q.359]
≥ 50%: all assays above

Cc1cc(C)cc(C(C)Oc2ccc(/N=C/N(C)C(C)C)c(C)n2)c1 (stereo not drawn) [Q.360]
≥ 50%: all assays above

CCN(C)/C=N/c1ccc(OCc2ccccc2OC)nc1C [Q.367]
≥ 50%: all assays above

CCN(C)/C=N/c1ccc(OC(C)Cc2ccccc2)nc1C (stereo not drawn) [Q.368]
≥ 50%: all assays above

CCN(C)/C=N/c1cc(Br)c(OC2Cc3cc(C#N)c(OC)cc3C2)nc1C (stereo not drawn) [Q.369]
≥ 50%: all assays above

CCN(C)/C=N/c1ccc(OC(C)c2cc(OC)cc(OC)c2)nc1C (stereo not drawn) [Q.373]
≥ 50%: all assays above

COc1cc(OC)cc(C(C)Oc2ccc(/N=C/N(C)C(C)C)c(C)n2)c1 (stereo not drawn) [Q.374]
≥ 50%: all assays above

CCN(C)/C=N/c1ccc(O[C@H]2CC[C@@H](CC)CC2)nc1C [Q.381]
≥ 50%: all assays above

CCN(C)/C=N/c1cc(Br)c(OCC(F)F)nc1C [Q.383]
≥ 50%: all assays above

CCN(C)/C=N/c1cc(Br)c(OCC(C)F)nc1C (stereo not drawn) [Q.384]
≥ 50%: all assays above
